For orientation: IC50 means the concentration that inhibits the measured activity by half. Read a low IC50 as greater potency. For orientation: melting point means the temperature, or range, at which the solid turns liquid.

T1 sequence (P31424 21-1171 isoform P31424-2 limits assumed): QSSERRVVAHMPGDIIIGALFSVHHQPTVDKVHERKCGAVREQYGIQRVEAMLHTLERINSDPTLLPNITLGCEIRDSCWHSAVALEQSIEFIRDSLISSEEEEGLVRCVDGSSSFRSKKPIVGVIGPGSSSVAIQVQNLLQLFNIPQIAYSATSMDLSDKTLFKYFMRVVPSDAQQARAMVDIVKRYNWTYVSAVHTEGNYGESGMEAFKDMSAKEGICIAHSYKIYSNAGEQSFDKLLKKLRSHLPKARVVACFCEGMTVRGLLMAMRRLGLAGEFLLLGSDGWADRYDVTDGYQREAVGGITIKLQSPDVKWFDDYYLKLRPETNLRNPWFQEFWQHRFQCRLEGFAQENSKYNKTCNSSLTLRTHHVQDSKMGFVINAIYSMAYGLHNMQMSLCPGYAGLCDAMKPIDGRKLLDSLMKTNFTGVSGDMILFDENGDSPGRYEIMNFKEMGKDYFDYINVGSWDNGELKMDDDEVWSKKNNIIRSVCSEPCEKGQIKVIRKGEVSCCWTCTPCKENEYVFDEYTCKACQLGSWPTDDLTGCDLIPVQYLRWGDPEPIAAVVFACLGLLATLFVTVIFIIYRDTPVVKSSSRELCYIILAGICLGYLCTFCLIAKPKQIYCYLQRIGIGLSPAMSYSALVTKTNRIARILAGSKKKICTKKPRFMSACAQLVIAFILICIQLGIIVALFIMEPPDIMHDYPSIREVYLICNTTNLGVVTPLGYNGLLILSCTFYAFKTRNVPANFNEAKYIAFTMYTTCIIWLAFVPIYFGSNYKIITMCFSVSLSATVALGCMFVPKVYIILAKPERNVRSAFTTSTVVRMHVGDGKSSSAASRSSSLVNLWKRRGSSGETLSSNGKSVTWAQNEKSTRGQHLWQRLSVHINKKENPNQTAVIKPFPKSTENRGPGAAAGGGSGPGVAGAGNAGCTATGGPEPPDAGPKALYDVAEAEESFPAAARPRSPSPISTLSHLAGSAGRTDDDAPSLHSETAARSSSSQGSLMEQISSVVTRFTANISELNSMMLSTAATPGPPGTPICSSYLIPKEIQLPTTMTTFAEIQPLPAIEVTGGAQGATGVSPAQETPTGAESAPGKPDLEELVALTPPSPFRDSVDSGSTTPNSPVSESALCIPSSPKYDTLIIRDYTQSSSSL

One series has as its target T1, rat mGlu 5a receptor (Rattus norvegicus, UniProt P31424).
T1 construct: expressed in transfected cells; host or cells: EBNA cells (transient transfection)
Nature of the series: [Ca2+]i FLIPR antagonist assay on mGlu 5a transfected EBNA cells against 10 μM glutamate. It is filed as cell-based. The note with it: rat mGlu 5a transiently transfected EBNA cells; against 10 μM glutamate as agonist. Here is the method:
The pharmacological activity of the compounds of the present invention was tested using the following methods: cDNA encoding rat mGlu 5a receptor was transiently transfected into EBNA cells using a procedure described by E.-J. Schlaeger and K. Christensen (Transient gene expression in mammalian cells grown in serum-free suspension culture, Cytotechnology 1999, 30, 71-83). [Ca^2+]i measurements were performed on mGlu 5a transfected EBNA cells after incubation of the cells with Fluo 3-AM (obtainable by FLUKA, 0.5 μM final concentration) for 1 hour at 37° C. followed by 4 washes with assay buffer (DMEM supplemented with Hank's salt and 20 mM HEPES. [Ca^2+]i measurements were done using a fluorometric imaging plate reader (FLIPR, Molecular Devices Corporation, La Jolla, Calif., USA). When compounds were evaluated as antagonists they were tested against 10 μM glutamate as agonist.
The inhibition (antagonist) curves were fitted with a four parameter logistic equation giving IC50, and Hill coefficient using the iterative non linear curve fitting software Origin (Microcal Software Inc., Northampton, Mass., USA).
As to `Clc1cccc(-c2cn3ccccc3n2)c1` [Example 13, 2-(3-Chloro-phenyl)-imidazo[1,2-a]pyridine], the concentration for half-maximal inhibition (IC50) is 1230 nM.

As to `Ic1cccc(-c2cn3ccccc3n2)c1` [Example 12, 2-(3-Iodo-phenyl)-imidazo[1,2-a]pyridine], the IC50 was determined as 970 nM. On to `Cc1cccc(-c2cn3ccccc3n2)c1` [Example 14, 2-(3-Methyl-phenyl)-imidazo[1,2-a]pyridine], for which the IC50 was 1550 nM.

`COc1cccc(-c2cn3ccccc3n2)c1` [Example 25, 2-(3-Methoxy-phenyl)-imidazo[1,2-a]pyridine] came in with an IC50 of 1650 nM. Still for that read-out and setting: the result for `c1ccc2c(-c3cn4ccccc4n3)csc2c1` [Example 16, 2-Benzo[b]thiophen-3-yl-imidazo[1,2-a]pyridine] reads 2760 nM; that for `Cc1ccc(-c2cn3ccccc3n2)cc1` [Example 23, 2-(4-Methyl-phenyl)-imidazo[1,2-a]pyridine], 8770 nM. The same measure, in the same setting: next, `Brc1cccc(-c2cn3ccccc3n2)c1` [Example 11, 2-(3-Bromo-phenyl)-imidazo[1,2-a]pyridine]: 950 nM; `COc1ccc(-c2cn3cc(C)ccc3n2)cc1OC` [Example 26, 2-(3,4-Dimethoxy-phenyl)-6-methyl-imidazo[1,2-a]pyridine]: 8300 nM; `Cc1ccc(-c2cn3ccccc3n2)s1` [Example 21, 2-(5-Methyl-thiophen-2-yl)-imidazo[1,2-a]pyridine]: 6130 nM. Regarding `O=[N+]([O-])c1cccc(-c2cn3ccccc3n2)c1` [Example 29, 2-(3-Nitro-phenyl)-imidazo[1,2-a]pyridine], the IC50 was found to be 10000 nM. On the same count and under the same terms, next, `COc1cc(-c2cn3ccccc3n2)ccc1OCc1ccccc1` [Example 9, 2-(4-Benzyloxy-3-methoxy-phenyl)-imidazo[1,2-a]pyridine]: 830 nM; `c1ccn2cc(-c3ccc4c(c3)CCC4)nc2c1` [Example 10, 2-Indan-5-yl-imidazo[1,2-a]pyridine]: 930 nM; `Cc1ccc(-c2cn3ccccc3n2)cc1C.Cl` [Example 6, 2-(3,4-Dimethyl-phenyl)-imidazo[1,2-a]pyridine hydrochloride]: 37 nM. Still for that read-out and setting: next, `Cc1ccc(-c2cn3cc(C)ccc3n2)cc1` [Example 28, 6-Methyl-2-(4-methyl-phenyl)-imidazo[1,2-a]pyridine]: 10000 nM; `Cc1ccn2cc(-c3ccc(C)c(C)c3)nc2c1` [Example 7, 2-(3,4-Dimethyl-phenyl)-7-methyl-imidazo[1,2-a]pyridine]: 280 nM. Still for that read-out and setting: next, `CCc1ccn2cc(-c3ccc(C)c(C)c3)nc2c1` [Example 20, 2-(3,4-Dimethyl-phenyl)-7-ethyl-imidazo[1,2-a]pyridine]: 3640 nM; `Fc1ccc(-c2cn3ccccc3n2)cc1Br` [Example 8, 2-(3-Bromo-4-fluoro-phenyl)-imidazo[1,2-a]pyridine]: 690 nM; `c1ccc2oc(-c3cn4ccccc4n3)cc2c1` [Example 15, 2-Benzofuran-2-yl-imidazo[1,2-a]pyridine]: 1660 nM.

In the case of `Cc1cc(-c2cn3ccccc3n2)c(C)s1` [Example 24, 2-(2,5-Dimethyl-thiophen-3-yl)-imidazo[1,2-a]pyridine], the 50% inhibitory concentration (IC50) is 580 nM. `COc1ccc(-c2cn3ccccc3n2)cc1OC` [Example 3, 2-(3,4-Dimethoxy-phenyl)-imidazo[1,2-a]pyridine] returned an IC50 of 6800 nM. Still for that read-out and setting: next, `Cc1ccn2cc(-c3ccccc3)nc2c1` [Example 22, 7-Methyl-2-phenyl-imidazo[1,2-a]pyridine]: 7500 nM; `c1ccn2cc(-c3ccc4c(c3)OCCO4)nc2c1` [Example 27, 2-(2,3-Dihydro-benzo [1,4]dioxin-6-yl)-imidazo[1,2-a]pyridine]: 990 nM. For `COc1ccn2cc(-c3ccc(OC)c(OC)c3)nc2c1` [Example 5, 2-(3,4-Dimethoxy-phenyl)-7-methoxy-imidazo[1,2-a]pyridine], the IC50 amounted to 3300 nM.

For `COc1ccc(-c2cn3ccc(C)cc3n2)cc1OC` [Example 2, 2-(3,4-Dimethoxy-phenyl)-7-methyl-imidazo[1,2-a]pyridine], the IC50 stood at 1880 nM. Same read-out and setting: next, `FC(F)(F)c1cccc(-c2cn3ccccc3n2)c1` [Example 17, 2-(3-Trifluoromethyl-phenyl)-imidazo[1,2-a]pyridine]: 2790 nM; `Cc1ccc(-c2cn3ccc(Cl)cc3n2)cc1C` [Example 1, 7-Chloro-2-(3,4-dimethyl-phenyl)-imidazo[1,2-a]pyridine]: 100 nM. Same read-out and setting: next, `Fc1cccc(-c2cn3ccccc3n2)c1` [Example 19, 2-(3-Fluoro-phenyl)-imidazo[1,2-a]pyridine]: 3410 nM; `c1ccn2cc(-c3ccc4c(c3)CCO4)nc2c1` [Example 18, 2-(2,3-Dihydro-benzofuran-5-yl)-imidazo[1,2-a]pyridine]: 2860 nM. Same read-out and setting: next, `COc1ccn2cc(-c3ccc(C)c(C)c3)nc2c1` [Example 4, 2-(3,4-Dimethyl-phenyl)-7-methoxy-imidazo[1,2-a]pyridine]: 140 nM.

Still in this series, the particulars now being: statement in words, compared with compounds of formula I.
In the case of `Cc1ccc(-c2nc3ccc(C)cn3c2CC(=O)N(C)C)cc1` [N,N,6-trimethyl-2-(4-methylphenyl)-imidazo[1,2-a]pyridine-3-acetamide, reference compound], the “affinity toward the mGluR5 receptor” value is recorded as “does not possess the affinity toward the mGluR5 receptor”.

Another series has as its target central benzodiazepine receptors. Nature of the series: Inhibition of binding of tritiated flumazenil to benzodiazepine receptors in rat cortex. The note with it: [3H]flumazenil, Cheng & Prusoff. Here is the method:
The affinity of compounds of formula I to the central benzodiazepine receptors in vitro was also tested using standard methods as for example described in Nature 1981, 294, 763-765 and J. Neurochemistry 1981, 37, 714-722. According to these methods, the inhibition of the binding of tritiated flumazenil to the specific benzodiazepine receptors in the cortex of rats by the respective test substances is determined and the inhibition dissociation constant (Ki) of each test compound is determined according to the method of Cheng & Prusoff (1973).
As to `Cc1ccc(-c2cn3ccccc3n2)cc1C.Cl` [Example 6, 2-(3,4-Dimethyl-phenyl)-imidazo[1,2-a]pyridine hydrochloride], the “pKi (negative logarithm of the Ki)” value is recorded as 5.2.

System in another series: not given
Assay: not given
Conditions: not given
Regarding `COc1ccn2cc(-c3ccc(OC)c(OC)c3)nc2c1` [Example 5, 2-(3,4-Dimethoxy-phenyl)-7-methoxy-imidazo[1,2-a]pyridine], the melting point worked out at 142 °C.

As to `COc1ccc(-c2cn3ccc(C)cc3n2)cc1OC` [Example 2, 2-(3,4-Dimethoxy-phenyl)-7-methyl-imidazo[1,2-a]pyridine], the melting point was 163 °C. The same measure, in the same setting: the result for `Cc1ccc(-c2cn3ccc(Cl)cc3n2)cc1C` [Example 1, 7-Chloro-2-(3,4-dimethyl-phenyl)-imidazo[1,2-a]pyridine] reads 144 °C; that for `COc1ccn2cc(-c3ccc(C)c(C)c3)nc2c1` [Example 4, 2-(3,4-Dimethyl-phenyl)-7-methoxy-imidazo[1,2-a]pyridine], 175 °C.

Another series has as its system central benzodiazepine receptors.
Assay: not given
The note with it: from cited reference (Eur. J. Pharmacol. 1986, 130(3), 257-263); cited from earlier work.
`Cc1ccc(-c2nc3ccc(C)cn3c2CC(=O)N(C)C)cc1` [N,N,6-trimethyl-2-(4-methylphenyl)-imidazo[1,2-a]pyridine-3-acetamide, reference compound]: the “agonist properties at central benzodiazepine receptors” value is “possesses agonist properties at central benzodiazepine receptors”.

(Values after US6916826B2, “Substituted imidazo[1,2-a]pyridine derivatives” (Hoffman-La Roche Inc., priority 2001, dated 2005).)
